PubChem BioAssay AID330 (DTP/NCI, 2004)
Several values for one entry are separate records, joined by “and”; a condition that tells them apart may be missing. Equal values may be shown once. Toxic doses and inconclusive results are not listed. Rule for the calls: active = survival T/C of 150% or more; inactive = T/C below 125% in these data.

Test system: P388 leukemia ip, CD2F1 mice, survival T/C
Assay: NCI In Vivo Anticancer Drug Screen. Data for tumor model P388 Leukemia (intraperitoneal) in CD2F1 (CDF1) mice
Settings: endpoint: median survival time, higher = longer survival
Outline: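 Mice carrying the transplanted tumor received test compound or vehicle. Survival was recorded in each group, and the value is the treated-group measurement divided by that of the vehicle-treated control group.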

[1] = dose: 100.0 mg/kg/injection, schedule: Q01DX009 (ip), vehicle: Klucel (hydroxypropylcellulose) (HPC)
[2] = dose: 200.0 mg/kg/injection, schedule: Q01DX009 (ip), vehicle: Klucel (hydroxypropylcellulose) (HPC)
[3] = dose: 100.0 mg/kg/injection, schedule: Q04DX003 (ip), vehicle: saline

Measured: T/C

CN=C(c1ccc(NC(=O)c2ccc(C(=O)Nc3ccc(C(=NC)N4CCOCC4)cc3)cc2)cc1)N1CCOCC1
inactive: dose: 6.25 mg/kg/injection, schedule: Q01DX005 (ip), vehicle: Klucel (hydroxypropylcellulose) (HPC) 105 % of control | dose: 12.5 mg/kg/injection, schedule: Q01DX005 (ip), vehicle: Klucel (hydroxypropylcellulose) (HPC) 101 % of control

COc1ccc(CC(=O)Nc2ccc(OC)c(OC)c2)cc1OC
inactive: dose: 25.0 mg/kg/injection, schedule: Q01DX009 (ip), vehicle: other 92 % of control | dose: 50.0 mg/kg/injection, schedule: Q01DX009 (ip), vehicle: other 91 % of control | dose: 100.0 mg/kg/injection, schedule: Q01DX009 (ip), vehicle: other 95 % of control | dose: 200.0 mg/kg/injection, schedule: Q01DX009 (ip), vehicle: other 87 % of control | dose: 400.0 mg/kg/injection, schedule: Q01DX009 (ip), vehicle: other 92 % of control

[CH3][Sn]([CH2]c1ccccc1)([CH2]c1ccccc1)[c]1ccccc1
inactive: dose: 100.0 mg/kg/injection, schedule: Q04DX003 (ip), vehicle: saline with Tween-80 98 % of control | dose: 200.0 mg/kg/injection, schedule: Q04DX003 (ip), vehicle: saline with Tween-80 105 % of control | dose: 400.0 mg/kg/injection, schedule: Q04DX003 (ip), vehicle: saline with Tween-80 100 % of control

O=C(OCc1ccccc1)N1C[C@@H](O)[C@H](Br)[C@H]1Cc1ccccc1
inactive: dose: 100.0 mg/kg/injection, schedule: Q01DX001 (ip), vehicle: distilled water + alcohol 103 % of control | dose: 200.0 mg/kg/injection, schedule: Q01DX001 (ip), vehicle: distilled water + alcohol 100 % of control | dose: 400.0 mg/kg/injection, schedule: Q01DX001 (ip), vehicle: distilled water + alcohol 97 % of control

[NH-]C(CCC(N)=O)C(=O)O.[NH-]C(CCC(N)=O)C(=O)O.[Ni+2] (configuration not stated)
inactive: dose: 6.25 mg/kg/injection, schedule: Q01DX005 (ip), vehicle: saline 93 % of control | dose: 12.5 mg/kg/injection, schedule: Q01DX005 (ip), vehicle: saline 96 % of control

O=C1C(=O)N(c2ccccc2Cl)C(=O)N1Cc1ccccc1
inactive: dose: 50.0 mg/kg/injection, schedule: Q01DX009 (ip), vehicle: Klucel (hydroxypropylcellulose) (HPC) 95 % of control | [1] 98 % of control | [2] 91 % of control

ON1c2ccccc2-c2ccccc2C1(c1ccccc1)c1ccccc1
inactive: dose: 50.0 mg/kg/injection, schedule: Q01DX005 (ip), vehicle: saline with Tween-80 94 % of control | dose: 100.0 mg/kg/injection, schedule: Q01DX005 (ip), vehicle: saline with Tween-80 99 % of control | dose: 200.0 mg/kg/injection, schedule: Q01DX005 (ip), vehicle: saline with Tween-80 90 % of control

CCCCCCCCCCCCCCCCCC(N)=S
inactive: dose: 12.5 mg/kg/injection, schedule: Q01DX005 (ip), vehicle: Klucel + Tween-80 95 % of control | dose: 25.0 mg/kg/injection, schedule: Q01DX005 (ip), vehicle: Klucel + Tween-80 95 % of control | dose: 50.0 mg/kg/injection, schedule: Q01DX005 (ip), vehicle: Klucel + Tween-80 86 % of control and 94 % of control | dose: 200.0 mg/kg/injection, schedule: Q01DX005 (ip), vehicle: Klucel + Tween-80 87 % of control

CCOC(=O)c1[nH]c(=O)c2ccccc2c1O
inactive: dose: 12.5 mg/kg/injection, schedule: Q01DX009 (ip), vehicle: suspension in saline 91 % of control | dose: 25.0 mg/kg/injection, schedule: Q01DX009 (ip), vehicle: suspension in saline 92 % of control | dose: 50.0 mg/kg/injection, schedule: Q01DX009 (ip), vehicle: suspension in saline 99 % of control | dose: 100.0 mg/kg/injection, schedule: Q01DX009 (ip), vehicle: suspension in saline 98 % of control

COc1cc2ccc3c4cc(OC)c(OC)cc4c[n+](C)c3c2cc1O
inactive: dose: 50.0 mg/kg/injection, schedule: Q04DX009 (ip), vehicle: Klucel (hydroxypropylcellulose) (HPC) 117 % of control | dose: 100.0 mg/kg/injection, schedule: Q04DX009 (ip), vehicle: Klucel (hydroxypropylcellulose) (HPC) 122 % of control

N=c1c(C(N)=O)cnc2n1CCCCC2
inactive: dose: 25.0 mg/kg/injection, schedule: Q04DX003 (ip), vehicle: saline 100 % of control | dose: 50.0 mg/kg/injection, schedule: Q04DX003 (ip), vehicle: saline 100 % of control | [3] 98 % of control

CCOC([O-])=N/C(=N/[n+]1ccc(C)cc1)c1ccccc1
inactive: [3] 104 % of control | dose: 200.0 mg/kg/injection, schedule: Q04DX003 (ip), vehicle: saline 106 % of control

CCCn1c(C)nc2ncn(-c3ccccc3)c2c1=O
inactive: dose: 50.0 mg/kg/injection, schedule: Q01DX005 (ip), vehicle: Klucel (hydroxypropylcellulose) (HPC) 101 % of control | dose: 100.0 mg/kg/injection, schedule: Q01DX005 (ip), vehicle: Klucel (hydroxypropylcellulose) (HPC) 102 % of control | dose: 200.0 mg/kg/injection, schedule: Q01DX005 (ip), vehicle: Klucel (hydroxypropylcellulose) (HPC) 101 % of control

O=C1c2ccccc2C(=O)c2c1ccc(C(=O)O)c2-c1ccc2ccccc2c1
inactive: [1] 101 % of control | [2] 116 % of control | dose: 400.0 mg/kg/injection, schedule: Q01DX009 (ip), vehicle: Klucel (hydroxypropylcellulose) (HPC) 117 % of control
